ChEMBL document CHEMBL1139381 (J Med Chem, 2009)

What was measured:
Plasmodium falciparum [1] = experiment: Antimalarial activity after 72 hrs against chloroquine-resistant Plasmodium falciparum W2 infected human A+ erythrocytes by Makler LDH reporter assay; type: functional, organism-based; conditions: W2, 72 h
[2] = target: T1, Histidine-rich protein PFHRP-II (Plasmodium falciparum) (UniProt P05227); experiment: Inhibition of beta-hematin assessed as molar equivalents at pH 2.7 after 18 hrs by spectrophotometric microassay relative to hemin; type: functional
T1 sequence (whole entry): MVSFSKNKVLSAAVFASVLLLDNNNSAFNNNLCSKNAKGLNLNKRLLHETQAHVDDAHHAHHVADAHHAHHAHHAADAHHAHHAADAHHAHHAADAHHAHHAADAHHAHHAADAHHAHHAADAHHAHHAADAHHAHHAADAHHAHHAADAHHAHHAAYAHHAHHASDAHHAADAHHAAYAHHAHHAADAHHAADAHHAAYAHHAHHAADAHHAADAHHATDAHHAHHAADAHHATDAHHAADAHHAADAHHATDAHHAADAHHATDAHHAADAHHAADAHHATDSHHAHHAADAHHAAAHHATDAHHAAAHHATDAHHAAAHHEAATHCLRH

Plasmodium falciparum [3] = experiment: Antimalarial activity after 24 hrs against chloroquine-sensitive Plasmodium falciparum 3D7 infected human A+ erythrocytes by [3H]hypoxanthine uptake; type: functional, organism-based
Plasmodium falciparum [4] = experiment: Antimalarial activity after 72 hrs against chloroquine-sensitive Plasmodium falciparum D10 infected human A+ erythrocytes in Makler LDH reporter assay; type: functional, organism-based; conditions: D10, 72 h
Plasmodium chabaudi [5] = experiment: Antimalarial activity as reduced parasitaemia against Plasmodium chabaudi AS infected CD1 mice (Mus musculus) at 50 mg/kg/day peroral dose; type: functional; set-up: scale not given: the % may be the effect or the level left; conditions: route oral
Plasmodium falciparum [6] = experiment: Antimalarial activity after 24 hrs against chloroquine-resistant synchronous Plasmodium falciparum K1 infected human A+ erythrocytes by [3H]hypoxanthine uptake; type: functional, organism-based
Plasmodium berghei [7] = experiment: Antimalarial activity as reduced parasitaemia against Plasmodium berghei ANKA infected CD1 mice (Mus musculus) at 30 mg/kg/day intraperitoneal dose over 4 days; type: functional; set-up: scale not given: the % may be the effect or the level left
Plasmodium falciparum [8] = experiment: Antimalarial activity after 48 hrs against chloroquine-sensitive Plasmodium falciparum NF54 infected human A+ erythrocytes by [3H]hypoxanthine uptake; type: functional, organism-based
Plasmodium falciparum [9] = experiment: Antimalarial activity after 48 hrs against chloroquine-resistant asynchronous Plasmodium falciparum K1 infected human A+ erythrocytes by [3H]hypoxanthine uptake; type: functional, organism-based
[10] = Cytotoxicity against mouse NSO cells by MTT assay; type: cell-based; conditions: read-out: TC50 (the source's name)
[11] = Cytotoxicity against human Daudi cells by MTT assay; type: cell-based; conditions: read-out: TC50 (the source's name)
[12] = Cytotoxicity against PHA-stimulated human lymphocytes by MTT assay; type: cell-based, Lymphocyte; conditions: read-out: TC50 (the source's name)
[13] = Apparent volume of distribution in CD-COBS rat at 5 mg/kg, iv; type: ADME, organism-based; set-up: dose 5 mg/kg, route intravenous; conditions: in vivo
[14] = Cytotoxicity against human KB cells by MTT assay; type: cell-based; conditions: read-out: TC50 (the source's name)
[15] = Elimination half life in CD-COBS rat at 5 mg/kg, iv; type: ADME, organism-based; set-up: dose 5 mg/kg, route intravenous; conditions: in vivo
Liver [16] = experiment: AUC (0 to t) in CD1 albino mouse liver at 50 mg/kg, po after 180 mins; type: ADME, organism-based; set-up: time < 3 hr, dose 50 mg/kg, route oral; conditions: in vivo, 3 h
Rattus norvegicus = experiment: AUC (0 to t) in CD-COBS rat at 50 mg/kg, po after 60 mins; type: ADME, organism-based, Plasma; set-up: time < 1 hr, dose 50 mg/kg, route oral; conditions: in vivo, 1 h
[17] = Ratio of drug level in liver to plasma of CD1 albino mouse at 50 mg/kg, po after 180 mins; type: ADME, organism-based; set-up: dose 50 mg/kg, route oral; conditions: liver and plasma
[18] = Liver concentration in CD-COBS rat at 50 mg/kg, po after 180 mins
Plasmodium berghei [19] = experiment: Antimalarial activity as reduced parasitaemia against Plasmodium berghei ANKA infected CD1 mice (Mus musculus) at 50 mg/kg/day peroral dose over 4 days; type: functional; set-up: scale not given: the % may be the effect or the level left; conditions: route oral
Plasmodium berghei [20] = experiment: Antimalarial activity as increased survival against Plasmodium berghei ANKA infected CD1 mice (Mus musculus) at 50 mg/kg/day peroral dose over 4 days; type: functional; conditions: route oral
Mus musculus = experiment: AUC (0 to t) in CD1 albino mouse at 50 mg/kg, po after 60 mins; type: ADME, organism-based, Plasma; set-up: time < 1 hr, dose 50 mg/kg, route oral; conditions: in vivo, 1 h
[21] = Ratio of drug level in blood to plasma of CD-COBS rat at 5 mg/kg, iv; type: ADME, organism-based; set-up: dose 5 mg/kg, route intravenous; conditions: blood and plasma
[22] = Cmax in CD1 albino mouse at 50 mg/kg, po after 60 mins; type: ADME, organism-based; set-up: dose 50 mg/kg, route oral; conditions: in vivo
[23] = Ratio of drug level in liver to plasma of CD-COBS rat at 50 mg/kg, po after 180 mins; type: ADME, organism-based; set-up: dose 50 mg/kg, route oral; conditions: liver and plasma
[24] = Cmax in CD-COBS rat at 50 mg/kg, po after 60 mins; type: ADME, organism-based; set-up: time < 1 hr, dose 50 mg/kg, route oral; conditions: in vivo, read-out: AUC
[25] = Liver concentration in CD1 albino mouse at 50 mg/kg, po after 180 mins
Liver [26] = experiment: AUC (0 to t) in CD-COBS rat liver at 50 mg/kg, po after 180 mins; type: ADME, organism-based; set-up: time < 3 hr, dose 50 mg/kg, route oral; conditions: in vivo, 3 h
Plasmodium berghei [27] = experiment: Antimalarial activity as increased survival against Plasmodium berghei ANKA infected CD1 mice (Mus musculus) at 10 mg/kg/day peroral dose over 4 days; type: functional; conditions: route oral
Plasmodium chabaudi [28] = experiment: Antimalarial activity as reduced parasitaemia against Plasmodium chabaudi AS infected CD1 mice (Mus musculus) at 10 mg/kg/day peroral dose over 4 days; type: functional; set-up: scale not given: the % may be the effect or the level left; conditions: route oral
Plasmodium berghei [29] = experiment: Antimalarial activity as reduced parasitaemia against Plasmodium berghei ANKA infected CD1 mice (Mus musculus) at 150 mg/kg/day oral dose over 4 days; set-up: scale not given: the % may be the effect or the level left

| Compound | IC50 (Plasmodium falciparum [1]) [nM] | IC50 (Plasmodium falciparum [3]) [nM] | IC50 (Plasmodium falciparum [4]) [nM] | Activity (Plasmodium chabaudi [5]) [%] | IC50 (Plasmodium falciparum [6]) [nM] | IC50 (Plasmodium falciparum [8]) [nM] | IC50 (Plasmodium falciparum [9]) [nM] | other results |
| --- | --- | --- | --- | --- | --- | --- | --- | --- |
| Clc1ccc([C@](c2ccccc2)(c2ccc(CN3CCCC3)cc2)n2ccnc2)cc1 | 59 | 7 | 130 | 94.8 | 5 | – | – | Ratio [2]: 2.5; Activity (Plasmodium berghei [7]): 37.6% |
| COc1ccc2nc3cc(Cl)ccc3c(NC(c3ccc(Cl)cc3)(c3ccc(Cl)cc3)c3ccc(CN4CCCC4)cc3)c2c1 | 149 | – | 143 | – | – | 135 | 199 | – |
| Clc1ccc(C(Nc2ccnc3cc(Cl)ccc23)(c2ccc(Cl)cc2)c2ccc(CN3CCCC3)cc2)cc1 | 56 | – | 48 | – | – | 16 | 28 | – |
| COc1ccc2nccc(NC(c3ccc(CN4CCCC4)cc3)c3cccc(Cl)c3)c2c1 (racemic) | 55 | – | 40 | – | – | 39 | 65 | – |
| Clc1cccc(C(Nc2ccnc3cc(Cl)ccc23)c2ccc(CN3CCOCC3)cc2)c1 (racemic) | 220 | – | 142 | – | – | 43 | 62 | – |
| COc1ccc2nccc(NC(c3ccc(CN4CCOCC4)cc3)c3cccc(Cl)c3)c2c1 (racemic) | 127 | – | 86 | – | – | 43 | 67 | – |
| COc1ccc2nc3cc(Cl)ccc3c(NC(c3ccc(Cl)cc3)c3ccc(CN4CCCC4)cc3)c2c1 (racemic) | 59 | 1 | 49 | 99.9 | 8 | 19 | 20 | CC50 [10]: 11100 nM; CC50 [11]: 11100 nM; CC50 [12]: 16600 nM |
| Clc1ccc(C(Nc2ccnc3cc(Cl)ccc23)c2ccc(CN3CCOCC3)cc2)cc1 (racemic) | 84 | – | 87 | – | – | 19 | 21 | – |
| Clc1ccc(C(Nc2ccnc3cc(Cl)ccc23)c2ccc(CN3CCCC3)cc2)cc1 (racemic) | 72 | 3.7 | 46 | 99.5 | 9 | 13 | 14 | CC50 [10]: 8600 nM; Vd [13]: 40 L/kg; CC50 [14]: 19600 nM; CC50 [11]: 8600 nM; half-life [15]: 0.733 h; CC50 [12]: 17300 nM |
| COc1ccc2nccc(NC(c3ccc(Cl)cc3)c3ccc(CN4CCCC4)cc3)c2c1 (racemic) | 82 | 8 | 57 | – | 60 | 32 | 32 | CC50 [14]: 8500 nM |
| COc1ccc2nccc(NC(c3ccc(Cl)cc3)c3ccc(CN4CCOCC4)cc3)c2c1 (racemic) | 65 | – | 67 | – | – | 33 | 54 | – |
| FC(F)(F)c1cc(NC(c2ccc(Cl)cc2)c2ccc(CN3CCCC3)cc2)c2cccc(C(F)(F)F)c2n1 (racemic) | 1370 | 100 | 1240 | – | 450 | – | – | CC50 [14]: 213000 nM |
| Clc1ccc(C(Nc2ccnc3cc(Cl)ccc23)(c2ccccc2)c2ccc(CN3CCCC3)cc2)cc1 (racemic) | 51 | 3 | 40 | 99.9 | 22 | – | – | – |
| FC(F)(F)c1ccc2c(NC(c3ccc(Cl)cc3)c3ccc(CN4CCCC4)cc3)ccnc2c1 (racemic) | 90 | – | 61 | 99.6 | 30 | 33 | 20 | CC50 [10]: 12100 nM; CC50 [14]: 5500 nM; CC50 [11]: 14100 nM; CC50 [12]: 24200 nM |
| Clc1cccc(C(Nc2ccnc3cc(Cl)ccc23)c2ccc(CN3CCCC3)cc2)c1 (racemic) | 22 | 24 | 21 | 98 | 65 | 12 | 16 | AUC (Liver [16]): 7061 µg/g; AUC (Rattus norvegicus): 422 ng·h/mL; Kp at 3 h [17]: > 100; concentration at 3 h [18]: 30500 ng/g; CC50 [10]: 23800 nM; Activity (Plasmodium berghei [19]): 98%; Ratio [2]: 1.33; Survival (Plasmodium berghei [20]): 18 days; AUC (Mus musculus): 725 ng·h/mL; blood plasma ratio [21]: 1.1; Vd [13]: 48 L/kg; Cmax [22]: 330 ng/mL; CC50 [11]: 34600 nM; half-life [15]: 3 h; Kp at 3 h [23]: > 100; CC50 [12]: 54100 nM; Cmax [24]: 180 ng/mL; concentration at 3 h [25]: 52200 ng/g; AUC (Liver [26]): 2945 µg/g |
| FC(F)(F)c1ccc2c(NC(c3ccc(CN4CCOCC4)cc3)c3cccc(Cl)c3)ccnc2c1 (racemic) | 304 | – | 234 | – | – | – | – | – |
| CCN(CC)CCCC(C)Nc1ccnc2cc(Cl)ccc12 (stereo not given) [CHLOROQUINE] | – | – | – | – | – | – | – | CC50 [10]: 14900 nM; CC50 [11]: 16700 nM; CC50 [12]: 18600 nM; Survival (Plasmodium berghei [27]): 16.3 days; Activity (Plasmodium chabaudi [28]): 99.9% |
| Clc1ccccc1C(c1ccccc1)(c1ccccc1)n1ccnc1 [CLOTRIMAZOLE] | – | – | – | 6 | – | – | – | Activity (Plasmodium berghei [29]): 28.3% |
